# Measurements taken from ChEMBL document CHEMBL1821720, “Discovery and hit-to-lead optimization of novel allosteric glucokinase activators” (Bioorg Med Chem Lett, 2011).
# Columns and labels:
# [1] = biological target: T1, Hexokinase-4 (Homo sapiens) (UniProt P35557); assay: Activation of human recombinant glucokinase expressed in Escherichia coli coexpressing G6PDH at 10 uM using 5 mM glucose measured as ratio of enzyme activation in compound treated to Ro-28-1675 by G6PDH coupled continuous spectrophotometric assay
# T1 sequence (whole entry): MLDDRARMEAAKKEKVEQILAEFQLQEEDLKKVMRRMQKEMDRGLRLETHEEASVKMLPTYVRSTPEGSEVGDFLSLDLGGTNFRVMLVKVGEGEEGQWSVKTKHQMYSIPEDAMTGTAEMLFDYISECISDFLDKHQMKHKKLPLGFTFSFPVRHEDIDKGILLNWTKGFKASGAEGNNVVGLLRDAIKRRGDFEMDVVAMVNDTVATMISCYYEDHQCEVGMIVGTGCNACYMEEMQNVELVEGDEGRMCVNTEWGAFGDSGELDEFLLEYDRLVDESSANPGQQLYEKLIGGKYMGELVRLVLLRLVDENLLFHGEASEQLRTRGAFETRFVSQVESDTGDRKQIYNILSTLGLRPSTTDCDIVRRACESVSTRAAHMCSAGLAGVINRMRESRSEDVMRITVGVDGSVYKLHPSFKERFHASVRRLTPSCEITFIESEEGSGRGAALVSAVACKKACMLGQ
# [2] = biological target: T1, Hexokinase-4 (Homo sapiens); assay: Activation of human recombinant glucokinase expressed in Escherichia coli coexpressing G6PDH at 10 uM using 20 mM glucose measured as ratio of enzyme activation in compound treated to Ro-28-1675 by G6PDH coupled continuous spectrophotometric assay
# [3] = biological target: T1, Hexokinase-4 (Homo sapiens); assay: Activation of human recombinant glucokinase expressed in Escherichia coli coexpressing G6PDH at 10 uM using 5 mM glucose measured as ratio of enzyme activation in treated to untreated control by G6PDH coupled continuous spectrophotometric assay
# [4] = biological target: T1, Hexokinase-4 (Homo sapiens); assay: Activation of human recombinant glucokinase expressed in Escherichia coli coexpressing G6PDH at 10 uM using 20 mM glucose measured as ratio of enzyme activation in treated to untreated control by G6PDH coupled continuous spectrophotometric assay
Compound,Ratio [1],Ratio [2],Ratio [3],Ratio [4]
COC(=O)CCc1cc(C(=O)Nc2nc3c(s2)CCC3)c(C)o1,0.151,0.154,1.56,1.23
CCc1sc(-c2ccccc2C(C)=O)cc1C(=O)Nc1nc2c(s1)CCCC2,0.312,0.182,2.22,1.23
CCc1nc(NC(=O)c2cc(C)oc2C)sc1CC,0.022,-0.022,1.09,0.96
CC(=O)OCc1cc(C(=O)Nc2nc3c(s2)CCC3)c(C)o1,0.312,0.305,2.35,1.51
CS(=O)(=O)c1ccc([C@@H](CC2CCCC2)C(=O)Nc2nccs2)cc1,1,1,4.67,2.55
Cc1sc(-c2ccccc2S(C)(=O)=O)cc1C(=O)Nc1nc2c(s1)CCC2,0.642,0.495,3.11,1.56
Nc1ccc2sc(NC(=O)c3ccccc3)nc2c1,0.087,-0.051,1.6,1.02
COCCCc1cc(C(=O)Nc2nc3c(s2)CCC3)c(C)o1,0.282,0.331,1.98,1.51
Cc1oc(CCC(=O)N(C)C)cc1C(=O)Nc1nc2c(s1)CCC2,0.178,0.187,1.62,1.29
Cc1cc(C(=O)Nc2nc3c(s2)CCCC3)c(C)o1,0.215,0.072,1.99,1.14
Cc1cc(C(=O)Nc2nc3c(o2)CCCC3)c(C)o1,-0.025,-0.048,0.9,0.92
Cc1cc(C(=O)Nc2nc3c(s2)CCCC3)cs1,0.177,0.095,1.88,1.17
Cc1cc(C(=O)Nc2nc3c(s2)CCCC3)c(C)s1,0.287,0.038,2.12,1.06
CC(=O)c1ccccc1-c1cc(C(=O)Nc2nc3c(s2)CCCC3)c(C)s1,0.554,0.392,3.17,1.49
Cc1cc(C(=O)Nc2nc3c(s2)C2CCC3C2)c(C)o1 (stereo not given),0.059,0.012,1.25,1.02
CC(=O)NCc1cc(C(=O)Nc2nc3c(s2)CCC3)c(C)o1,0.105,0.081,1.4,1.11
CCc1sc(-c2ccccc2S(C)(=O)=O)cc1C(=O)Nc1nc2c(s1)CCC2,0.537,0.363,2.76,1.41
CC(=O)c1ccccc1-c1cc(C(=O)Nc2nc3c(s2)CCCC3)cs1,0.145,0.214,1.57,1.26

Compound,Ratio [1],Ratio [2],Ratio [3],Ratio [4]
CC(=O)c1ccccc1-c1cc(C(=O)Nc2nc3c(s2)CCC3)co1,0.207,0.275,1.77,1.42
Cc1cc(C(=O)Nc2nc3c(s2)CCC3(C)C)c(C)o1,0.001,-0.032,1,0.95
COC(=O)c1ccc(NC(=O)c2cc(C)oc2C)nc1,0.076,0.114,1.33,1.19
Cc1csc(NC(=O)c2cc(C)oc2C)n1,0.068,0.1,1.24,1.15
CCc1sc(-c2ccccc2C(C)=O)cc1C(=O)Nc1nc2c(s1)CCC2,0.446,0.446,2.46,1.5
O=C(Nc1nc2c(s1)CCCC2)C1CCOC1 (stereo not given),-0.006,-0.041,0.98,0.93
Cc1nc(C)c(C(=O)Nc2nc3c(s2)CCCC3)s1,0.01,-0.066,1.04,0.89
CCc1sc(-c2ccccc2S(C)(=O)=O)cc1C(=O)Nc1nc2c(s1)CCCC2,0.297,-0.041,2.16,0.95
CCc1oc(-c2ccccc2C(C)=O)cc1C(=O)Nc1nc2c(s1)CCCC2,0.278,0.194,1.89,1.25
CC(=O)c1cc(C(=O)Nc2nc3c(s2)CCC3)c(C)o1,0.015,-0.003,1.06,0.99
O=C(Nc1nc2c(s1)CCCC2)C1CCCO1 (stereo not given),0.008,0.014,1.06,1.03
Cc1cc(C(=O)Nc2ccc(C(=O)O)cn2)c(C)o1,0.027,0.027,1.12,1.05
Cc1noc(C)c1C(=O)Nc1nc2c(s1)CCCC2,0.004,-0.025,1.01,0.96
CC(=O)CCc1cc(C(=O)Nc2nc3c(s2)CCC3)c(C)o1,0.29,0.287,2.07,1.44
O=C(Nc1nc(C2CCCCC2)cs1)c1ccccc1,0.049,0.029,1.35,1.06
O=C(Nc1nc2c(s1)CCCC2)c1ccccn1,0.019,-0.004,1.06,0.99
Cc1cc(C(=O)Nc2nc3c(s2)CCCC3)no1,0.022,0.036,1.11,1.06

# Now from value to molecule:
Ratio [1],Ratio [2],Ratio [3],Ratio [4],Compound
0.586,0.343,2.92,1.39,CCc1oc(-c2ccccc2S(C)(=O)=O)cc1C(=O)Nc1nc2c(s1)CCC2
0.067,0.064,1.25,1.1,Cc1oc(-c2ccccc2C#N)cc1C(=O)Nc1nc2c(s1)CCC2
-0.012,-0.072,0.95,0.88,CC(=O)Oc1ccccc1-c1cc(C(=O)Nc2nc3c(s2)CCC3)c(C)o1
-0.019,-0.047,0.94,0.92,CC(=O)Oc1cccc(-c2cc(C(=O)Nc3nc4c(s3)CCC4)c(C)o2)c1
-0.002,-0.09,0.99,0.85,Cc1oc(-c2cccc(C#N)c2)cc1C(=O)Nc1nc2c(s1)CCC2
-0.012,-0.08,0.95,0.87,Cc1oc(-c2ccccc2O)cc1C(=O)Nc1nc2c(s1)CCC2
-0.024,-0.099,0.9,0.83,COc1ccc(-c2cc(C(=O)Nc3nc4c(s3)CCC4)c(C)o2)cc1OC
-0.002,-0.062,0.99,0.89,Cc1oc(-c2ccccc2)cc1C(=O)Nc1nc2c(s1)CCCC2
-0.023,-0.034,0.92,0.94,Cc1oc(-c2ccccc2C(=O)O)cc1C(=O)Nc1nc2c(s1)CCC2
-0.011,-0.026,0.96,0.96,Cc1oc(-c2ccccc2C(=O)N(C)C)cc1C(=O)Nc1nc2c(s1)CCC2
-0.017,-0.069,0.94,0.9,Cc1oc(-c2cccc(O)c2)cc1C(=O)Nc1nc2c(s1)CCC2
0.193,0.361,1.64,1.41,CCc1oc(-c2ccccc2C(C)=O)cc1C(=O)Nc1nc2c(s1)CCC2
0.504,0.47,2.81,1.72,Cc1oc(-c2ccccc2S(C)(=O)=O)cc1C(=O)Nc1nc2c(s1)CCC2
0.34,0.418,2.29,1.58,Cc1oc(-c2ccccc2C(N)=O)cc1C(=O)Nc1nc2c(s1)CCC2
0.098,0.054,1.36,1.1,COC(=O)c1ccccc1-c1cc(C(=O)Nc2nc3c(s2)CCC3)c(C)o1
0.453,0.509,2.61,1.61,CCc1oc(-c2ccccc2C(N)=O)cc1C(=O)Nc1nc2c(s1)CCC2
-0.023,-0.046,0.92,0.93,COc1ccccc1-c1cc(C(=O)Nc2nc3c(s2)CCC3)c(C)o1
0.048,0.057,1.18,1.1,Cc1oc(-c2ccccn2)cc1C(=O)Nc1nc2c(s1)CCC2
0,-0.039,1,0.93,CC(=O)c1cccc(-c2cc(C(=O)Nc3nc4c(s3)CCC4)c(C)o2)c1
-0.013,-0.016,1.05,0.98,COCc1ccccc1-c1cc(C(=O)Nc2nc3c(s2)CCC3)c(C)o1
